Experimental data as given in patent publication US4983602A, “3'-hydroxybenzoxazinorifamycin derivative, process for preparing the same and antibacterial agent containing the same” (Kanegafuchi Kagaku Kogyo Kabushiki Kaisha, priority 1988, dated 1991).
≈ marks a conversion by molar mass, not a printed value.

Columns and labels:
[1] = test system: Mycobacterium tuberculosis H37 Rv; test: Minimal inhibitory concentration against a tubercle bacillus; settings: Kirchner liquid medium containing 10% bovine serum, 37° C., 4 weeks
[2] = test system: Mycobacterium smegmatis ATCC 607; test: Minimal inhibitory concentration, standard method of Japan Society of Chemotherapy; type: cell-based; settings: Mycolicibacterium smegmatis, ATCC607
[3] = test system: Staphylococcus aureus IFO 12732; test: as above; type: cell-based; settings: IFO12732
[4] = test system: Klebsiella pneumoniae IFO 3512; test: as above; type: cell-based; settings: IFO3512
[5] = test system: Escherichia coli IFO 12734; test: as above; type: cell-based; settings: IFO12734
[6] = test system: Bacillus subtilis IFO 3134; test: as above; type: cell-based; settings: IFO3134
[7] = test system: Mycobacterium tuberculosis H37 Rv; test: Survival of mice infected with tuberculosis, groups of 10 (Tables 4 and 5); settings: oral, 200 μg/mouse; for dead mice: fortieth day
[8] = test system: Micrococcus luteus IFO 12708; test: Minimal inhibitory concentration, standard method of Japan Society of Chemotherapy; type: cell-based; settings: IFO12708
[9] = test system: Mycobacterium tuberculosis H37 Rv; test: Therapeutic effect on mice infected with tuberculosis, groups of 20 (FIG. 1); settings: oral, 200 μg/mouse once a day, six days a week

SMILES	Minimal inhibitory concentration [1] [µg/mL]	MIC [2] [µg/mL]	MIC [3] [µg/mL]	MIC [4] [µg/mL]	MIC [5] [µg/mL]	MIC [6] [µg/mL]	Survival rate ([7]; Table 4, control 30%) [%]	dead mice ([7]; Table 4 test)	MIC [8] [µg/mL]	Survival rate ([7]; Table 5, control 0%) [%]	dead mice ([7]; Table 5 test)	therapeutic effect as compared with rifampicin (and derivative A) [9]
C=CCN1CCN(c2cc(O)c3nc4c5c6c7c(C)c(O)c5c(=O)c(c-4oc3c2)NC(=O)C(C)=CC=CC(C)C(O)C(C)C(O)C(C)C(OC(C)=O)C(C)C(OC)C=COC(C)(O7)C6=O)CC1 (stereo not drawn) [Derivative No. 7]	0.035 (≈ 0.0378 µM)	2.5 (≈ 2.7 µM)	≤ 0.02	> 10	> 10	0.04 (≈ 0.0432 µM)	100	there was not observed any dead mouse	≤ 0.02			
C=CCCN1CCN(c2cc(O)c3nc4c5c6c7c(C)c(O)c5c(=O)c(c-4oc3c2)NC(=O)C(C)=CC=CC(C)C(O)C(C)C(O)C(C)C(OC(C)=O)C(C)C(OC)C=COC(C)(O7)C6=O)CC1 (stereo not drawn) [Derivative No. 8]	0.017 (≈ 0.0181 µM)	2.5 (≈ 2.66 µM)	≤ 0.02	> 10	> 10	≤ 0.02			≤ 0.02	100	there was not observed any dead mouse	
COC1C=COC2(C)Oc3c(C)c(O)c4c(=O)c(c5oc6cc(N7CCCCC7)ccc6nc-5c4c3C2=O)NC(=O)C(C)=CC=CC(C)C(O)C(C)C(O)C(C)C(OC(C)=O)C1C (stereo not drawn) [derivative B]												inferior to rifampicin
COC1C=COC2(C)Oc3c(C)c(O)c4c(=O)c(c5oc6cc(N7CCN(CC=C(C)C)CC7)cc(O)c6nc-5c4c3C2=O)NC(=O)C(C)=CC=CC(C)C(O)C(C)C(O)C(C)C(OC(C)=O)C1C (stereo not drawn) [Derivative No. 9]	0.035 (≈ 0.0367 µM)	2.5 (≈ 2.62 µM)	≤ 0.02	> 10	> 10	0.08 (≈ 0.0839 µM)	100	there was not observed any dead mouse	≤ 0.02			
CCCCN1CCN(c2cc(O)c3nc4c5c6c7c(C)c(O)c5c(=O)c(c-4oc3c2)NC(=O)C(C)=CC=CC(C)C(O)C(C)C(O)C(C)C(OC(C)=O)C(C)C(OC)C=COC(C)(O7)C6=O)CC1 (stereo not drawn) [Derivative No. 1]	0.035 (≈ 0.0372 µM)	5 (≈ 5.31 µM)	≤ 0.02	> 10	> 10	≤ 0.02			≤ 0.02	100	there was not observed any dead mouse	
COC1C=COC2(C)Oc3c(C)c(O)c4c(=O)c(c5oc6cc(N7CCN8CCCC8C7)cc(O)c6nc-5c4c3C2=O)NC(=O)C(C)=CC=CC(C)C(O)C(C)C(O)C(C)C(OC(C)=O)C1C (stereo not drawn) [Derivative No. 10]	0.15 (≈ 0.162 µM)	2.5 (≈ 2.7 µM)	≤ 0.02	10 (≈ 10.8 µM)	10 (≈ 10.8 µM)	≤ 0.02	100	there was not observed any dead mouse	≤ 0.02			
CCC(C)N1CCN(c2cc(O)c3nc4c5c6c7c(C)c(O)c5c(=O)c(c-4oc3c2)NC(=O)C(C)=CC=CC(C)C(O)C(C)C(O)C(C)C(OC(C)=O)C(C)C(OC)C=COC(C)(O7)C6=O)CC1 (stereo not drawn) [Derivative No. 4]	0.017 (≈ 0.0181 µM)	1.25 (≈ 1.33 µM)	≤ 0.02	> 10	> 10	≤ 0.02			≤ 0.02	100	there was not observed any dead mouse	
COC1C=COC2(C)Oc3c(C)c(O)c4c(=O)c(c5oc6cc(N7CCN(CC8CC8)CC7)cc(O)c6nc-5c4c3C2=O)NC(=O)C(C)=CC=CC(C)C(O)C(C)C(O)C(C)C(OC(C)=O)C1C (stereo not drawn) [Derivative No. 3]	0.017 (≈ 0.0181 µM)	2.5 (≈ 2.66 µM)	≤ 0.02	> 10	> 10	≤ 0.02	100	there was not observed any dead mouse	≤ 0.02			
COC1C=COC2(C)Oc3c(C)c(O)c4c(=O)c(c5oc6cc(N7CCN(C(C)(C)C)CC7)cc(O)c6nc-5c4c3C2=O)NC(=O)C(C)=CC=CC(C)C(O)C(C)C(O)C(C)C(OC(C)=O)C1C (stereo not drawn) [Derivative No. 6]	0.008 (≈ 0.0085 µM)	1.25 (≈ 1.33 µM)	≤ 0.02	> 10	> 10	≤ 0.02			≤ 0.02	100	there was not observed any dead mouse	
CCc1c(N2CCCC2)ccc2nc3c4c5c6c(C)c(O)c4c(=O)c(c-3oc12)NC(=O)C(C)=CC=CC(C)C(O)C(C)C(O)C(C)C(OC(C)=O)C(C)C(OC)C=COC(C)(O6)C5=O (stereo not drawn) [derivative C]												inferior to rifampicin
COC1C=COC2(C)Oc3c(C)c(O)c4c(=O)c(c5oc6cc(N7CCN(CCC(C)C)CC7)cc(O)c6nc-5c4c3C2=O)NC(=O)C(C)=CC=CC(C)C(O)C(C)C(O)C(C)C(OC(C)=O)C1C (stereo not drawn) [Derivative No. 5]	0.07 (≈ 0.0733 µM)	5 (≈ 5.23 µM)	≤ 0.02	> 10	> 10	0.16 (≈ 0.168 µM)	100	there was not observed any dead mouse	≤ 0.02			
COC1C=COC2(C)Oc3c(C)c(O)c4c(=O)c(c5oc6cc(N7CCN(CC(C)C)CC7)cc(O)c6nc-5c4c3C2=O)NC(=O)C(C)=CC=CC(C)C(O)C(C)C(O)C(C)C(OC(C)=O)C1C (stereo not drawn) [Derivative No. 2]	0.017 (≈ 0.0181 µM)	2.5 (≈ 2.66 µM)	≤ 0.02	> 10	> 10	0.04 (≈ 0.0425 µM)	100	there was not observed any dead mouse	≤ 0.02			excellent therapeutic effect as compared with rifampicin
CO[C@H]1/C=C/O[C@@]2(C)Oc3c(C)c(O)c4c(O)c(c(/C=N/N5CCN(C)CC5)c(O)c4c3C2=O)NC(=O)/C(C)=C\C=C\[C@H](C)[C@H](O)[C@@H](C)[C@@H](O)[C@@H](C)[C@H](OC(C)=O)[C@@H]1C [Rifampicin, reference compound]	0.6 (≈ 0.729 µM)						80			40		
